Laboratory results as given in patent US20260098034A1, “2H-BENZOTRIAZOLE DERIVATIVE, PREPARATION METHOD THEREFOR, AND PHARMACEUTICAL COMPOSITION CONTAINING SAME” (ORXES THERAPEUTICS CO., LTD., priority 2022, published 2026).
Where “and” joins values, the source holds several entries; their conditions need not be identical. Equal values may be shown once.

Test system: Wistar rats
Assay: PCA-induced Wistar rat premature ejaculation model
Assay type: in vivo
Conditions: for Actual number of ejaculations / Number of the seminal vesicle contractions / Seminal vesicle basal pressure / Seminal vesicle peak pressure / The first contraction latency period / The first ejaculation latency period: within 30 min after PCA induction, individual rats; for latency period of initial seminal vesicle contraction compared with the PE model group: FIG. 4
Protocol: Male Wistar rats with a weight of about 300 g were adapted for one week before the experiment was started. On the day of the experiment, the animals were anesthetized with a combination of 20 mg/kg of Zoletil 50 via i.p. and 8 mg/kg of xylazine via i.p., and the body temperature was maintained at 37° C. with a thermal insulation blanket. Exposed common carotid artery was intubated with PE50 to monitor real-time arterial pressure (i.e. systolic pressure, diastolic pressure, and mean arterial pressure). The seminal vesicles and cavernosal muscles of the animals were exposed. The stable baselines of the pressure of the seminal vesicle and the cavernosal myoelectricity were recorded for 10 min. Then the drug was administered through the tail vein for the dapoxetine group, and the tested compound was orally administered for the tested compound group (for the PE model group, the drug was replaced with a solvent). After 1 min, for inducing PE modeling, 5 mg/kg of PCA was injected intraperitoneally, and then the seminal vesicle pressure curve and the change of bulbospongiosus EMG were continuously recorded for 30 min.
• A. Within 30 min, the actual number of ejaculations of the animals and the latency period of the first ejaculation; • B. Within 30 min, the number of the seminal vesicle contractions, the latency period of the first contraction, the basal pressure and the peak pressure.
The experimental data were expressed by means±S.E.M., and statistical analysis was performed by GraphPad Prism 7.0 software. Single factor variance analysis (One-way ANOVA) was used for comparison between multiple groups, and Dunnett't-test was used for statistical analysis in Post hoc test. Student's t-test was used for comparison between two groups. P<0.05 was considered as a significant difference.

[1] = 0.125 mg/kg p.o. + PCA 5 mg/kg i.p.
[2] = 0.5 mg/kg p.o. + PCA 5 mg/kg i.p.
[3] = 2 mg/kg p.o. + PCA 5 mg/kg i.p.

With `c1ccc2nn(CCCCN3CCN(c4noc5ccccc45)CC3)nc2c1` [Compound A001] the “Actual number of ejaculations” value [1] was 8 and 9 and 11 (2×) and 10, the “Number of the seminal vesicle contractions” value [1] was 10 and 11 and 12 and 13 and 16 and the “Seminal vesicle basal pressure” value [1] was 6.69 mmHg and 7.04 mmHg and 7.28 mmHg and 6.91 mmHg and 7.78 mmHg. For the same compound, the “Seminal vesicle peak pressure” value [1] was 17.17 mmHg and 21.45 mmHg and 22.67 mmHg and 23.39 mmHg and 20.58 mmHg, the “The first contraction latency period” value [1] was 784 s and 788 s and 605 s and 517 s and 839 s and the “The first ejaculation latency period” value [1] was 996 s and 726 s and 766 s and 823 s and 969 s. For the same compound, the “Actual number of ejaculations” value [2] was 0 (2×) and 2 (2×) and 3, the “Number of the seminal vesicle contractions” value [2] was 0 (2×) and 5 and 4 and 6 and the “Seminal vesicle basal pressure” value [2] was 3.88 mmHg and 4.19 mmHg and 5.77 mmHg and 5.08 mmHg and 5.68 mmHg. The “Seminal vesicle peak pressure” value [2] was 4.89 mmHg and 5.09 mmHg and 11.06 mmHg and 16.57 mmHg and 14.89 mmHg, the “The first contraction latency period” value [2] was 1800 s (2×) and 1298 s and 1147 s and 1125 s and the “The first ejaculation latency period” value [2] was 1800 s (2×) and 1399 s and 1311 s and 1291 s. For the same compound, the “Actual number of ejaculations” value [3] was 2 and 0 (4×), the “Number of the seminal vesicle contractions” value [3] was 4 and 0 and 1 (3×) and the “Seminal vesicle basal pressure” value [3] was 6.88 mmHg and 4.68 mmHg and 4.38 mmHg and 4.92 mmHg and 3.98 mmHg. The “Seminal vesicle peak pressure” value [3] was 18.65 mmHg and 6.99 mmHg and 6.07 mmHg and 7.32 mmHg and 6.05 mmHg, the “The first contraction latency period” value [3] was 968 s and 1800 s and 1687 s and 1774 s and 1629 s and the “The first ejaculation latency period” value [3] was 1055 s and 1800 s (4×).
For `Fc1ccc2c(C3CCN(CCCn4nc5ccccc5n4)CC3)noc2c1` [Compound A002], the “Actual number of ejaculations” value [1] was 2 (2×) and 6 and 3 and 5, the “Number of the seminal vesicle contractions” value [1] was 5 (2×) and 6 (2×) and 3 and the “Seminal vesicle basal pressure” value [1] was 5.88 mmHg and 6.10 mmHg and 6.02 mmHg and 4.66 mmHg and 3.97 mmHg. For the same compound, the “Seminal vesicle peak pressure” value [1] was 12.33 mmHg and 16.17 mmHg and 18.07 mmHg and 12.06 mmHg and 9.88 mmHg, the “The first contraction latency period” value [1] was 1266 s and 833 s and 825 s and 1198 s and 1499 s and the “The first ejaculation latency period” value [1] was 1422 s and 933 s and 966 s and 1276 s and 1345 s. The “Actual number of ejaculations” value [2] was 2 and 3 and 1 and 0 (2×), the “Number of the seminal vesicle contractions” value [2] was 3 and 4 and 2 and 0 (2×) and the “Seminal vesicle basal pressure” value [2] was 5.76 mmHg and 5.88 mmHg and 5.79 mmHg and 3.67 mmHg and 3.87 mmHg. The “Seminal vesicle peak pressure” value [2] was 12.54 mmHg and 11.66 mmHg and 7.05 mmHg and 4.27 mmHg and 5.11 mmHg, the “The first contraction latency period” value [2] was 1176 s and 1307 s and 1355 s and 1800 s (2×) and the “The first ejaculation latency period” value [2] was 1233 s and 1346 s and 1432 s and 1800 s (2×). For the same compound, the “Actual number of ejaculations” value [3] was 0, the “Number of the seminal vesicle contractions” value [3] was 2 and 0 (4×) and the “Seminal vesicle basal pressure” value [3] was 4.15 mmHg and 4.12 mmHg and 4.85 mmHg and 4.11 mmHg and 3.93 mmHg. For the same compound, the “Seminal vesicle peak pressure” value [3] was 8.87 mmHg and 6.08 mmHg and 5.09 mmHg and 4.77 mmHg and 5.03 mmHg, the “The first contraction latency period” value [3] was 1568 s and 1800 s (4×) and the “The first ejaculation latency period” value [3] was 1800 s. For the same compound, the “latency period of initial seminal vesicle contraction compared with the PE model group” value (high dose group (2.0 mg/kg p.o.)) was “significant increase”, the “latency period of initial seminal vesicle contraction compared with the PE model group” value (low dose group (0.125 mg/kg p.o.), P>0.05) was “no statistically significant differences” and the “latency period of initial seminal vesicle contraction compared with the PE model group” value (medium dose group (0.5 mg/kg p.o.)) was “significant increase”.
`Fc1ccc2c(C3CCN(CCCCn4nc5ccccc5n4)CC3)noc2c1` [Compound A003] was tested, and the “Actual number of ejaculations” value [1] was 0 (2×) and 4 (2×) and 5, the “Number of the seminal vesicle contractions” value [1] was 3 (2×) and 8 (2×) and 7 and the “Seminal vesicle basal pressure” value [1] was 3.97 mmHg and 3.78 mmHg and 5.98 mmHg and 5.59 mmHg and 5.17 mmHg. For the same compound, the “Seminal vesicle peak pressure” value [1] was 4.08 mmHg and 4.25 mmHg and 16.58 mmHg and 14.17 mmHg and 18.06 mmHg, the “The first contraction latency period” value [1] was 1458 s and 1525 s and 707 s and 658 s and 735 s and the “The first ejaculation latency period” value [1] was 1800 s (2×) and 865 s and 778 s and 806 s. For the same compound, the “Actual number of ejaculations” value [2] was 6 (2×) and 2 and 0 (2×), the “Number of the seminal vesicle contractions” value [2] was 9 (2×) and 5 and 0 (2×) and the “Seminal vesicle basal pressure” value [2] was 5.88 mmHg and 6.03 mmHg and 5.19 mmHg and 3.9 mmHg and 4.2 mmHg. For the same compound, the “Seminal vesicle peak pressure” value [2] was 18.97 mmHg and 20.11 mmHg and 12.84 mmHg and 4.09 mmHg and 4.76 mmHg, the “The first contraction latency period” value [2] was 778 s and 814 s and 1009 s and 1800 s (2×) and the “The first ejaculation latency period” value [2] was 845 s and 903 s and 1175 s and 1800 s (2×). The “Actual number of ejaculations” value [3] was 0, the “Number of the seminal vesicle contractions” value [3] was 1 and 0 (4×) and the “Seminal vesicle basal pressure” value [3] was 4.65 mmHg and 4.17 mmHg and 4.55 mmHg and 4.62 mmHg and 3.92 mmHg. For the same compound, the “Seminal vesicle peak pressure” value [3] was 8.13 mmHg and 5.24 mmHg and 4.9 mmHg and 4.89 mmHg and 4.86 mmHg, the “The first contraction latency period” value [3] was 1623 s and 1800 s (4×) and the “The first ejaculation latency period” value [3] was 1800 s.
With `c1ccc2nn(CCCN3CCN(c4nsc5ccccc45)CC3)nc2c1` [Compound A004] the “Actual number of ejaculations” value [1] was 0 (2×) and 3 and 6 and 4, the “Number of the seminal vesicle contractions” value [1] was 3 and 4 and 8 and 6 and 2 and the “Seminal vesicle basal pressure” value [1] was 4.09 mmHg and 5.98 mmHg and 5.59 mmHg and 5.17 mmHg and 4.18 mmHg. For the same compound, the “Seminal vesicle peak pressure” value [1] was 4.21 mmHg and 13.38 mmHg and 16.13 mmHg and 15.05 mmHg and 4.25 mmHg, the “The first contraction latency period” value [1] was 1400 s and 797 s and 757 s and 735 s and 1525 s and the “The first ejaculation latency period” value [1] was 1800 s (2×) and 865 s and 678 s and 806 s. For the same compound, the “Actual number of ejaculations” value [2] was 5 and 6 and 2 and 0 (2×), the “Number of the seminal vesicle contractions” value [2] was 7 and 8 and 3 and 0 (2×) and the “Seminal vesicle basal pressure” value [2] was 5.89 mmHg and 6.07 mmHg and 5.18 mmHg and 3.99 mmHg and 4.32 mmHg. For the same compound, the “Seminal vesicle peak pressure” value [2] was 17.95 mmHg and 29.19 mmHg and 13.88 mmHg and 4.79 mmHg and 4.77 mmHg, the “The first contraction latency period” value [2] was 798 s and 819 s and 1009 s and 1800 s (2×) and the “The first ejaculation latency period” value [2] was 845 s and 903 s and 1175 s and 1800 s (2×). For the same compound, the “Actual number of ejaculations” value [3] was 0, the “Number of the seminal vesicle contractions” value [3] was 0 and the “Seminal vesicle basal pressure” value [3] was 4.68 mmHg and 4.67 mmHg and 4.65 mmHg and 4.66 mmHg and 3.97 mmHg. The “Seminal vesicle peak pressure” value [3] was 5.18 mmHg and 5.26 mmHg and 4.96 mmHg and 4.79 mmHg and 4.87 mmHg, the “The first contraction latency period” value [3] was 1800 s and the “The first ejaculation latency period” value [3] was 1800 s.
